Measurements: patent US20050112260A1, “Monatin tabletop sweetener compositions and methods of making same” (Cargill, Inc., priority 2003, published 2005)

Tests used:
[1] = Quantitative sweetness synergy of monatin in blends with other sweeteners; type: in vivo
[2] = Stability of monatin at high temperature (80° C.) and neutral pH, LC-MS; type: physicochemical; conditions: pH 7, 75 ppm, after 7-35 days
Method: A 100 milliliter solution of 75 ppm monatin at pH 7 was used as a stock solution. The synthetic monatin sample contained approximately 96% of the 2R,4R/2S,4S enantiomeric pair and 4% of the 2R,4S/2S,4R enantiomeric pair. Samples were incubated at 80° C. and pH 7 for the duration of the experiment and samples were withdrawn at 0, 1, 2, 3, 4 hours and 1, 2, 4, 7, 14, 21 and 35 days. All experimental conditions were run in duplicate.
Separation and Quantification Using LC-MS using Reverse Phase Chromatography A response curve was established for both detected diastereomer peaks of the synthetic monatin. A range of 5-150 ppm was bracketed with the synthetic monatin standard dissolved in DI water. Separation of the two diastereomer peaks was accomplished using a 3.9×1 50 mm Novapak C18 (Waters Corporation) HPLC column. Ultraviolet-Visible (UV) and Mass Spectrometer (MS) detectors were used in series for detection and quantitation. Monatin and its lactone peak each have a UVmax at 279 nm that aided in precise detection. Quantification was done by acquiring Selected Ion Monitoring (SIM) scan of 293.3 m/z and 275.3 m/z in positive-ion electrospray mode.

[3] = Stability of monatin at pH 3 with increasing temperatures; type: physicochemical
Method: A sample of synthetic monatin was subjected to pH 3 at temperatures of 25° C., 50° C. and 100° C. At room temperature and pH 3, a 14% loss in monatin was observed over a period of 48 hours. This loss was attributed to lactone formation. At 50° C. and pH 3, a 23% loss in monatin was observed over a period of 48 hours. This loss was attributed to lactone formation and the buildup of an unknown compound after about 15.5 minutes. […] The major detectable component was an unknown at 15.5 minutes.

[4] = Sensory stability of monatin and aspartame at pH 2.5, 3.0, 4.0 at 40° C. (sweetness vs sucrose standards, panel n=8); type: physicochemical; conditions: for Rate constant (k; day^−1) of sweetness loss: pseudo-first order assumed
Method: The sensory stability of monatin solutions prepared at pH 2.5, 3.0 and 4.0 and stored at 40° C. was monitored for 100 days. Loss of sweetness from these solutions was compared with the losses of sweetness from aspartame solutions prepared and stored under identical conditions.
The sensory stability of monatin (8% SEV, ˜55 ppm, synthetic blend containing approximately 96% of the 2R,4R/2S, 4S enantiometric pair and 4% of the 2R,4S/2S,4R enantiometric pair) in phosphate/citrate buffers having a pH of 2.5, 3.0, and 4.0 was examined after storage at 40° C. The stability of monatin was compared to that of aspartame (400 ppm) in the same buffers. Three sucrose reference solutions were prepared in the same phosphate/citrate buffers as the monatin and aspartame solutions. All prepared solutions were stored in the dark.
• pH2.5 Phosphoric acid (75% solution) 0.127% (w/v) • Tri-sodium citrate monohydrate 0.005% (w/v) • pH3.0 Phosphoric acid (75% solution) 0.092% (w/v) • Tri-sodium citrate monohydrate 0.031% (w/v) • pH4.0 Phosphoric acid (75% solution) 0.071% (w/v) • Tri-sodium citrate monohydrate 0.047% (w/v)
The sweetness of each sweetener relative to sucrose was assessed in duplicate by a small panel (n=8) of trained sensory evaluators experienced in the sweetness estimation procedure. All samples (in the same buffers) were served in duplicate at a temperature of 22° C.±1° C. Monatin (test) solutions, coded with 3 digit random number codes were presented individually to panelists, in random order. Sucrose reference standards, ranging from 4.0-10.0% (w/v) sucrose, increasing in steps of 0.5% (w/v) sucrose were also provided. Panelists were asked to estimate sweetness by comparing the sweetness of the test solution to the sucrose standards. This was carried out by taking 3 sips of the test solution, followed by a sip of water, followed by 3 sips of sucrose standard followed by a sip of water, etc. Panelists were encouraged to estimate the sweetness to one decimal place, e.g., 6.8, 8.5. A five minute rest period was imposed between evaluating the test solutions. Panelists were also asked to rinse well and eat a cracker to reduce any potential carry over effects.
If a pseudo-first order breakdown reaction is assumed, a plot of logn percentage retention versus time (logn% RTN v. t) allows estimation of the half-life (t½) and rate constant (k) of sweetness loss under any given set of conditions. In so doing, the kinetics of monatin and aspartame sweetness loss may be summarized as follows in Table 13.

[5] = pH 2.5, 40° C., day 1, monatin ~55 ppm
[6] = pH 2.5, 40° C., day 2, monatin ~55 ppm
[7] = pH 2.5, 40° C., day 3, monatin ~55 ppm
[8] = pH 2.5, 40° C., day 4, monatin ~55 ppm
[9] = pH 2.5, 40° C., day 7, monatin ~55 ppm
[10] = pH 2.5, 40° C., day 8, monatin ~55 ppm
[11] = pH 2.5, 40° C., day 9, monatin ~55 ppm
[12] = pH 2.5, 40° C., day 11, monatin ~55 ppm
[13] = pH 2.5, 40° C., day 50, monatin ~55 ppm
[14] = pH 2.5, 40° C., day 100, monatin ~55 ppm
[15] = pH 3.0, 40° C., day 1, monatin ~55 ppm
[16] = pH 3.0, 40° C., day 2, monatin ~55 ppm
[17] = pH 3.0, 40° C., day 3, monatin ~55 ppm
[18] = pH 3.0, 40° C., day 4, monatin ~55 ppm
[19] = pH 3.0, 40° C., day 7, monatin ~55 ppm
[20] = pH 3.0, 40° C., day 8, monatin ~55 ppm
[21] = pH 3.0, 40° C., day 9, monatin ~55 ppm
[22] = pH 3.0, 40° C., day 11, monatin ~55 ppm
[23] = pH 3.0, 40° C., day 50, monatin ~55 ppm
[24] = pH 3.0, 40° C., day 100, monatin ~55 ppm
[25] = pH 4.0, 40° C., day 3, monatin ~55 ppm
[26] = pH 4.0, 40° C., day 8, monatin ~55 ppm
[27] = pH 4.0, 40° C., day 11, monatin ~55 ppm
[28] = pH 4.0, 40° C., day 17, monatin ~55 ppm
[29] = pH 4.0, 40° C., day 24, monatin ~55 ppm
[30] = pH 4.0, 40° C., day 50, monatin ~55 ppm
[31] = pH 4.0, 40° C., day 100, monatin ~55 ppm

- degree of degradation of monatin [2]: insignificant
- loss in monatin ([3]; 50° C., pH 3, 48 hours): 23%
- loss in monatin ([3]; 100° C., pH 3, 24 hours): nearly all monatin was lost
- loss in monatin ([3]; room temperature (25° C.), pH 3, 48 hours): 14%
- Retention of Monatin Sweetness (%) [4, 5]: 93.3%
- Retention of Monatin Sweetness (%) [4, 6]: 91.2%
- Retention of Monatin Sweetness (%) [4, 7]: 88.4%
- Retention of Monatin Sweetness (%) [4, 8]: 85.2%
- Retention of Monatin Sweetness (%) [4, 9]: 82.7%
- Retention of Monatin Sweetness (%) [4, 10]: 81.4%
- Retention of Monatin Sweetness (%) [4, 11]: 80.1%
- Retention of Monatin Sweetness (%) [4, 12]: 78.6%
- Retention of Monatin Sweetness (%) [4, 13]: 62.7%
- Retention of Monatin Sweetness (%) [4, 14]: 28.6%
- Rate constant (k; day^−1) of sweetness loss ([4]; pH 2.5, 40° C.): 0.011 day⁻¹
- Sweetness Retained (%) ([4]; pH 2.5, 100 days storage at 40° C.): 29%
- Retention of Monatin Sweetness (%) [4, 15]: 99.6%
- Retention of Monatin Sweetness (%) [4, 16]: 93.2%
- Retention of Monatin Sweetness (%) [4, 17]: 91.4%
- Retention of Monatin Sweetness (%) [4, 18]: 91.6%
- Retention of Monatin Sweetness (%) [4, 19]: 85.3%
- Retention of Monatin Sweetness (%) [4, 20]: 83.8%
- Retention of Monatin Sweetness (%) [4, 21]: 83.1%
- Retention of Monatin Sweetness (%) [4, 22]: 83.1%
- Retention of Monatin Sweetness (%) [4, 23]: 72.3%
- Retention of Monatin Sweetness (%) [4, 24]: 57.9%
- Rate constant (k; day^−1) of sweetness loss ([4]; pH 3.0, 40° C.): 0.006 day⁻¹
- Sweetness Retained (%) ([4]; pH 3.0, 100 days storage at 40° C.): 58%
- Retention of Monatin Sweetness (%) [4, 25]: 95.7%
- Retention of Monatin Sweetness (%) [4, 26]: 86.8%
- Retention of Monatin Sweetness (%) [4, 27]: 85.9%
- Retention of Monatin Sweetness (%) [4, 28]: 82.4%
- Retention of Monatin Sweetness (%) [4, 29]: 84.5%
- Retention of Monatin Sweetness (%) [4, 30]: 82.9%
- Retention of Monatin Sweetness (%) [4, 31]: 78.4%
- Rate constant (k; day^−1) of sweetness loss ([4]; pH 4.0, 40° C.): 0.003 day⁻¹
- Sweetness Retained (%) ([4]; pH 4.0, 100 days storage at 40° C.): 78%
Compound: NC(CC(O)(Cc1c[nH]c2ccccc12)C(=O)O)C(=O)O (stereo not drawn) [Monatin, 2-hydroxy-2-(indol-3-ylmethyl)-4-aminoglutaric acid]
- quantitative synergy with cyclamates ([1]; blend with cyclamates): quantitatively synergistic
- quantitative synergy with other sweeteners ([1]; with aspartame, saccharin, acesulfame-K, sucralose, or carbohydrate sweeteners): no significant quantitative synergy
- SEV Monatin (% sucrose) ([4]; pH 2.5, 40° C., day 0, monatin ~55 ppm): 7.35 % sucrose
- SEV Monatin (% sucrose) [4, 5]: 6.86 % sucrose
- SEV Monatin (% sucrose) [4, 6]: 6.70 % sucrose
- SEV Monatin (% sucrose) [4, 7]: 6.50 % sucrose
- SEV Monatin (% sucrose) [4, 8]: 6.26 % sucrose
- SEV Monatin (% sucrose) [4, 9]: 6.08 % sucrose
- SEV Monatin (% sucrose) [4, 10]: 5.98 % sucrose
- SEV Monatin (% sucrose) [4, 11]: 5.89 % sucrose
- SEV Monatin (% sucrose) [4, 12]: 5.78 % sucrose
- SEV Monatin (% sucrose) [4, 13]: 4.61 % sucrose
- SEV Monatin (% sucrose) [4, 14]: 2.10 % sucrose
- SEV Monatin (% sucrose) ([4]; pH 3.0, 40° C., day 0, monatin ~55 ppm): 7.08 % sucrose
- SEV Monatin (% sucrose) [4, 15]: 7.05 % sucrose
- SEV Monatin (% sucrose) [4, 16]: 6.60 % sucrose
- SEV Monatin (% sucrose) [4, 17]: 6.47 % sucrose
- SEV Monatin (% sucrose) [4, 18]: 6.49 % sucrose
- SEV Monatin (% sucrose) [4, 19]: 6.04 % sucrose
- SEV Monatin (% sucrose) [4, 20]: 5.93 % sucrose
- SEV Monatin (% sucrose) [4, 21]: 5.88 % sucrose
- SEV Monatin (% sucrose) [4, 22]: 5.88 % sucrose
- SEV Monatin (% sucrose) [4, 23]: 5.12 % sucrose
- SEV Monatin (% sucrose) [4, 24]: 4.10 % sucrose
- SEV Monatin (% sucrose) ([4]; pH 4.0, 40° C., day 0, monatin ~55 ppm): 7.40 % sucrose
- SEV Monatin (% sucrose) [4, 25]: 7.08 % sucrose
- SEV Monatin (% sucrose) [4, 26]: 6.42 % sucrose
- SEV Monatin (% sucrose) [4, 27]: 6.36 % sucrose
- SEV Monatin (% sucrose) [4, 28]: 6.10 % sucrose
- SEV Monatin (% sucrose) [4, 29]: 6.25 % sucrose
- SEV Monatin (% sucrose) [4, 30]: 6.14 % sucrose
- SEV Monatin (% sucrose) [4, 31]: 5.80 % sucrose
